Laboratory results as given in patent US8765802B2, “Kinase inhibitors, compositions thereof, and methods of use therewith” (Provid Pharmaceuticals, Inc., priority 2007, dated 2014).

molecular target: T1, Chk2 (Homo sapiens, UniProt O96017); test: Chk2 inhibitor IMAP assay (high-throughput Chk2 screening assay); assay type: biochemical; settings: IMAP fluorescence polarization assay, 10 μM ATP
T1 construct: made in house; host or cells: E. coli BL21 Star (Invitrogen)
Experimental: Compounds set forth in Table 1 were tested in the Chk2 inhibitor IMAP assay described herein in Example 6.84. […] The letters given for the Chk2 EC50 values in Table 1 represent the following ranges: A=<100 nM; B=100-300 nM; C=300-1000 nM; D=1-10 μM; and E>10 μM.
Compounds can be screened for Chk2 inhibitory activity using a high-throughput screening assay based in the immobilized metal ion affinity-based fluorescence polarization (IMAP) assay developed by Molecular Devices. This assay is based on the high affinity binding of phosphate by immobilized metal (MIII) coordination complexes on nanoparticles. A fluorescein-labeled peptide substrate is used as the substrate for the kinase activity of Chk2 in the assay. The IMAP binding reagent stops the kinase reaction. The binding of the binding reagent results in a change in the rate of molecular motion of the peptide and causes an increase in the fluorescence polarization value observed for the fluorescein label attached to the end of the peptide. Thus, inhibition of Chk2 would result in a decrease in fluorescence polarization compared to control.
A specific protocol for screening Compounds for Chk2 inhibitory activity follows.
A Compound is supplied at 1 mM in 0.5 μl DMSO on 384 well plates (such as Greiner or Corning). After thawing, 5 μl DMSO is added to the drug plate. The drug plate is then incubated for 10 minutes to solubilize the Compound. An additional 19.5 μl of reaction buffer (10× stock prepared using 100 mM Tris-HCl, 100 mM MgCl2, 1% BSA, pH 7.2, stored at 4° C.)+1 mM DDT is added to bring the Compound to 4× final concentration. A positive control is also prepared at 4× final concentration. The following control wells are used: less enzyme control (all reagents except enzyme; 5 μl/well), less Compound control (all reagents except Compound; 5 μl/well), positive control (all reagents plus staurosporine at a final concentration of 5 μM; 5 μl/well).
Reagents are then added in the following order to give the following final concentration: 2.5 μl ATP/Chk2tide (Molecular Devices) (10 μM/100 nM final concentration), 1.25 μl Compound (5 μM final concentration inf 5.5% DMSO), and 1.25 μl Chk2 (1:500, 2.4 μg/mL final concentration).
Plates are covered and incubated at room temperature for 60 minutes.
IMAP binding reagent (Molecular Devices) is diluted 1:400 into binding buffer (Molecular Devices). 15 μl of this solution is then added to all wells and the plates are covered and incubated for 30 minutes.
Plates are read using a Tecan Ultra under the fluorescence polarization mode. Gain is set to the less enzyme and less Compound wells for each plate. Excitation 485 nm, emmission 535 nm, Z position 12519 and flashes 5 are used as settings. Raw data from the Tecan reader is imported into an access database for analysis.

T1 sequence (O96017 whole entry): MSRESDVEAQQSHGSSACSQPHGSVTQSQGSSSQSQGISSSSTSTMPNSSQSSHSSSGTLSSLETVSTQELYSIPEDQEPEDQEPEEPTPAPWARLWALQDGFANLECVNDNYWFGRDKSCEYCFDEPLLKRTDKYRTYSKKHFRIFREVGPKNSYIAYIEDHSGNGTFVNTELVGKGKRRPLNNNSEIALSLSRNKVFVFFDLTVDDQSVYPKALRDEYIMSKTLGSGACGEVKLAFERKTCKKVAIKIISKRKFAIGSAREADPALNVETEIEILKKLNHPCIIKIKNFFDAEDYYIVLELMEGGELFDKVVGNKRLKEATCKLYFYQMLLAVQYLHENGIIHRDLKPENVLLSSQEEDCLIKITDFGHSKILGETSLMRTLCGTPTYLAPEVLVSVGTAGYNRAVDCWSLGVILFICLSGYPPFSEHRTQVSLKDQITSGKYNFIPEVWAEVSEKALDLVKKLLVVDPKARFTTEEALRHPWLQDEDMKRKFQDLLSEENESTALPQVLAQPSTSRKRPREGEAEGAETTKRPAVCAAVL

EC50 | SMILES
> 10 µM | CSC(=N)N/N=C(\C)c1ccc(NC(=O)Nc2ccc(C(C)=O)cc2)cc1 [Compound 64]
0.1 to 0.3 µM | C/C(=N\N/C(=N\N)NN)c1ccc(NC(=O)Nc2ccc(/C(C)=N/N/C(=N\N)NN)cc2)cc1 [Compound 65]
0.1 to 0.3 µM | CC(=O)c1ccc(NC(=O)Nc2ccc(/C(C)=N/NC3=NCCN3)cc2)cc1 [Compound 66]
1 to 10 µM | C/C(=N\NC(=N)N)c1ccc(NC(=O)c2cc3cc(Cl)ccc3[nH]2)cc1 [Compound 67]
1 to 10 µM | C/C(=N\NC(=N)N)c1ccc(NC(=O)c2cc3cccc(/C(C)=N/NC(=N)N)c3[nH]2)cc1 [Compound 68]
< 0.1 µM | COc1cc([N+](=O)[O-])c2[nH]c(C(=O)Nc3ccc(/C(C)=N/NC(=N)N)cc3)cc2c1 [Compound 69]
< 0.1 µM | CC(=O)c1ccc2[nH]c(C(=O)Nc3ccc(/C(C)=N/NC(=N)N)cc3)cc2c1 [Compound 71]
0.3 to 1 µM | CC(=O)c1ccc(NC(=O)c2cc3cc(/C(C)=N/NC(=N)N)ccc3[nH]2)cc1 [Compound 72]
0.3 to 1 µM | COc1cc2cc(C(=O)Nc3ccc(/C(C)=N/NC(=N)N)cc3)[nH]c2cc1OC [Compound 73]
0.3 to 1 µM | COc1ccc2cc(C(=O)Nc3ccc(/C(C)=N/NC(=N)N)cc3)[nH]c2c1 [Compound 74]
1 to 10 µM | COc1cccc2cc(C(=O)Nc3ccc(C(C)=NNC(=N)N)cc3)[nH]c12 [Compound 75]
0.3 to 1 µM | CC(=O)Nc1cccc2cc(C(=O)Nc3ccc(/C(C)=N/NC(=N)N)cc3)[nH]c12 [Compound 76]
1 to 10 µM | C/C(=N\NC(=N)N)c1ccc(NC(=O)c2cc3cccc(N)c3[nH]2)cc1 [Compound 77]
0.1 to 0.3 µM | COc1ccc2oc(C(=O)Nc3ccc(/C(C)=N/NC(=N)N)cc3)cc2c1 [Compound 78]
1 to 10 µM | C/C(=N\NC(=N)N)c1ccc(NC(=O)c2ccc3c(c2)CCC/C3=N\NC(=N)N)cc1 [Compound 79]
0.3 to 1 µM | C/C(=N\NC(=N)N)c1ccc2[nH]c(C(=O)Nc3ccc4[nH]ccc4c3)cc2c1 [Compound 80]
0.3 to 1 µM | C/C(=N\NC(=N)N)c1ccc2[nH]c(C(=O)Nc3ccc4cc[nH]c4c3)cc2c1 [Compound 81]
1 to 10 µM | COc1ccc2nc(C(=O)Nc3ccc(/C(C)=N/NC(=N)N)cc3)sc2c1 [Compound 82]
1 to 10 µM | C/C(=N\NC(=N)N)c1ccc(NC(=O)c2cc3ccc(N)cc3[nH]2)cc1 [Compound 83]
1 to 10 µM | C/C(=N\NC(=N)N)c1ccc(NC(=O)c2cc3cccc([N+](=O)[O-])c3[nH]2)cc1C [Compound 84]

EC50 | SMILES
> 10 µM | C/C(=N\NC(=N)N)c1ccc(NC(=O)c2cc3cccc(C(F)(F)F)c3[nH]2)cc1 [Compound 85]
< 0.1 µM | N=C(N)N/N=C1\CCCc2cc(NC(=O)c3cc4cccc([N+](=O)[O-])c4[nH]3)ccc21 [Compound 86]
1 to 10 µM | C/C(=N\NC(=N)N)c1ccc(NC(=O)c2cc3cc(F)ccc3[nH]2)cc1 [Compound 87]
0.3 to 1 µM | CC(=O)Nc1ccc2cc(C(=O)Nc3ccc(/C(C)=N/NC(=N)N)cc3)[nH]c2c1 [Compound 88]
0.3 to 1 µM | C/C(=N\NC(=N)N)c1ccc(NC(=O)c2cc3ccc(S(C)(=O)=O)cc3[nH]2)cc1 [Compound 89]
1 to 10 µM | CCCOc1ccc2cc(C(=O)Nc3ccc(/C(C)=N/NC(=N)N)cc3)[nH]c2c1 [Compound 90]
0.3 to 1 µM | CSc1ccc2cc(C(=O)Nc3ccc(/C(C)=N/NC(=N)N)cc3)[nH]c2c1 [Compound 91]
0.3 to 1 µM | CCNc1ccc2cc(C(=O)Nc3ccc(/C(C)=N/NC(=N)N)cc3)[nH]c2c1 [Compound 92]
0.3 to 1 µM | C/C(=N\NC(=N)N)c1ccc(NC(=O)c2cc3ccc(C)cc3[nH]2)cc1 [Compound 93]
0.3 to 1 µM | C/C(=N\NC(=N)N)c1ccc(NC(=O)c2cc3ccc(Cl)cc3[nH]2)cc1 [Compound 94]
1 to 10 µM | C/C(=N\NC(=N)N)c1ccc(NC(=O)c2cc3cccc(NS(N)(=O)=O)c3[nH]2)cc1 [Compound 95]
1 to 10 µM | N=C(N)N/N=C1\CCc2cc(NC(=O)c3cc4cccc([N+](=O)[O-])c4[nH]3)ccc21 [Compound 96]
1 to 10 µM | C/C(=N\NC(=N)N)c1ccc(NC(=O)c2cc3c(C)cccc3[nH]2)cc1 [Compound 97]
1 to 10 µM | COc1cc2cc(C(=O)Nc3ccc(/C(C)=N/NC(=N)N)cc3)[nH]c2cc1NC(C)=O [Compound 98]
0.3 to 1 µM | COc1cc2cc(C(=O)Nc3ccc(/C(C)=N/NC(=N)N)cc3)[nH]c2cc1N [Compound 99]
> 10 µM | C/C(=N\NC(=N)N)c1ccc(NC(=O)c2nc3ccccc3[nH]2)cc1 [Compound 100]
< 0.1 µM | C/C(=N\NC(=N)N)c1ccc2[nH]c(C(=O)Nc3ccc4ncccc4c3)cc2c1 [Compound 101]
1 to 10 µM | C/C(=N\NC(=N)N)c1ccc2[nH]c(C(=O)Nc3cc(C)ccn3)cc2c1 [Compound 102]
1 to 10 µM | C/C(=N\NC(=N)N)c1ccc2[nH]c(C(=O)Nc3ccc(C)cn3)cc2c1 [Compound 103]
> 10 µM | C/C(=N\NC(=N)N)c1ccc2[nH]c(C(=O)Nc3ccccn3)cc2c1 [Compound 104]

EC50 | SMILES
0.3 to 1 µM | COc1ccc2[nH]c(C(=O)Nc3ccc4c(c3)CCC/C4=N\NC(=N)N)cc2c1 [Compound 105]
1 to 10 µM | C/C(=N\NC(=N)N)c1ccc(NC(=O)c2cn3ccccc3n2)cc1 [Compound 106]
1 to 10 µM | C/C(=N\NC(=N)N)c1ccc(NC(=O)c2cc3c(ccc4ccccc43)[nH]2)cc1 [Compound 107]
1 to 10 µM | C/C(=N\NC(=N)N)c1ccc2[nH]c(C(=O)Nc3cccc4[nH]ccc34)cc2c1 [Compound 108]
0.3 to 1 µM | C/C(=N\NC(=N)N)c1ccc2[nH]c(C(=O)Nc3ccc4[nH]c(C)cc4c3)cc2c1 [Compound 109]
> 10 µM | COc1ccc2[nH]c(C(=O)Nc3ccc4c(c3)CC/C4=N\NC(=N)N)cc2c1 [Compound 110]
0.3 to 1 µM | C/C(=N\NC(=N)N)c1ccc2[nH]c(C(=O)Nc3cccc(N)c3)cc2c1 [Compound 111]
1 to 10 µM | C/C(=N\NC(=N)N)c1ccc2[nH]c(C(=O)Nc3ccc(N)cc3)cc2c1 [Compound 114]
0.1 to 0.3 µM | C/C(=N\NC(=N)N)c1ccc2[nH]c(C(=O)Nc3ccc(C(N)=O)cc3)cc2c1 [Compound 115]
< 0.1 µM | CC(=NNC(N)=NO)c1ccc(NC(=O)Nc2ccc(C(C)=NNC(N)=NO)cc2)cc1 [Compound 116]
< 0.1 µM | COc1ccc2[nH]c(C(=O)Nc3ccc(C(C)=NNC(N)=NO)cc3)cc2c1 [Compound 117]
< 0.1 µM | CC(=NNC(N)=NO)c1ccc(NC(=O)c2cc3cccc([N+](=O)[O-])c3[nH]2)cc1 [Compound 118]
< 0.1 µM | C/C(=N\NC(=N)N)c1ccc2[nH]c(C(=O)Nc3ccc4nc[nH]c4c3)cc2c1 [Compound 121]
> 10 µM | C/C(=N\NC(=N)N)c1ccc2[nH]c(C(=O)Nc3ccc4cnccc4n3)cc2c1 [Compound 122]
0.1 to 0.3 µM | C/C(=N\NC(=N)N)c1ccc2[nH]c(C(=O)Nc3ccc4nc(C)ccc4c3)cc2c1 [Compound 125]
< 0.1 µM | C/C(=N\NC(=N)N)c1ccc2[nH]c(C(=O)Nc3ccc4cnccc4c3)cc2c1 [Compound 126]
0.1 to 0.3 µM | C/C(=N/NC(=N)N)c1ccc2[nH]c(C(=O)Nc3ccc(-n4ccnc4)cc3)cc2c1 [Compound 127]
0.1 to 0.3 µM | C/C(=N/N/C(N)=N\O)c1ccc2[nH]c(C(=O)Nc3ccc(N4CCCCC4)cc3)cc2c1 [Compound 128]
0.3 to 1 µM | C/C(=N\N/C(N)=N/O)c1ccc(NC(=O)c2cc3cc(C(N)=O)ccc3[nH]2)cc1 [Compound 129]
< 0.1 µM | C/C(=N\NC(=N)N)c1ccc(NC(=O)c2cc3cc(C(CC(C)C)=NNC(=N)N)ccc3[nH]2)cc1 [Compound 130]
